Results as given in ChEMBL document CHEMBL1201862, “PubChem BioAssay data set” (2004).
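Following 48 hours of exposure in 96-well plates, responses at five concentrations were used to interpolate endpoints linearly. GI50 marks 50% less growth.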 Calls of active or inactive are those of the source. Cut-off read from the data, not from the text of the source: active = GI50 up to about 1.1 µM and inactive = higher.

Key:
Assay in all cases: NCI-60 cell line screen, 48 h
LOX IMVI = test system: LOX IMVI
KM12 = test system: KM12
IGROV-1 = test system: IGROV-1
NCI-H522 = test system: NCI-H522
UACC-257 = test system: UACC-257
CCRF-CEM = test system: CCRF-CEM
DMS-273 = test system: DMS-273
COLO 205 = test system: COLO 205
HCT-15 = test system: HCT-15
HCT-116 = test system: HCT-116
OVCAR-5 = test system: OVCAR-5
ACHN = test system: ACHN
HT-29 = test system: HT-29
HCC 2998 = test system: HCC 2998
UACC-62 = test system: UACC-62
OVCAR-8 = test system: OVCAR-8
SK-MEL-2 = test system: SK-MEL-2
Malme-3M = test system: Malme-3M
DMS-114 = test system: DMS-114
SW-620 = test system: SW-620
HL-60 = test system: HL-60
EKVX = test system: EKVX
SF-539 = test system: SF-539
OVCAR-3 = test system: OVCAR-3
RPMI-8226 = test system: RPMI-8226
TK-10 = test system: TK-10
SF-295 = test system: SF-295
NCI-H460 = test system: NCI-H460
SK-MEL-5 = test system: SK-MEL-5
SNB-19 = test system: SNB-19
U-251 = test system: U-251
NCI-H23 = test system: NCI-H23
SK-MEL-28 = test system: SK-MEL-28
HOP-92 = test system: HOP-92
HOP-62 = test system: HOP-62
KM-20L2 = test system: KM-20L2
DLD-1 = test system: DLD-1
MOLT-4 = test system: MOLT-4
RXF 393 = test system: RXF 393
LXFL 529 = test system: LXFL 529
SF-268 = test system: SF-268
NCI-H226 = test system: NCI-H226
SR = test system: SR
786-0 = test system: 786-0
HOP-18 = test system: HOP-18
SN12C = test system: SN12C
K562 = test system: K562
A549 = test system: A549
CAKI-1 = test system: CAKI-1
SK-OV-3 = test system: SK-OV-3
M14 = test system: M14
A498 = test system: A498
SNB-75 = test system: SNB-75
OVCAR-4 = test system: OVCAR-4
M19-MEL = test system: M19-MEL
UO-31 = test system: UO-31

Cc1nc2sccn2c1C(=O)NNC(N)=S
GI50 (LOX IMVI): > 100 µM (inactive) | GI50 (KM12): > 100 µM (inactive) | GI50 (IGROV-1): > 100 µM (inactive) | GI50 (NCI-H522): > 100 µM (inactive) | GI50 (UACC-257): > 100 µM (inactive) | GI50 (CCRF-CEM): > 100 µM (inactive) | GI50 (DMS-273): > 100 µM (inactive) | GI50 (COLO 205): > 100 µM (inactive) | GI50 (HCT-15): > 100 µM | GI50 (HCT-116): > 100 µM (inactive) | GI50 (OVCAR-5): > 100 µM (inactive) | GI50 (ACHN): > 100 µM (inactive) | GI50 (HT-29): > 100 µM (inactive) | GI50 (HCC 2998): > 100 µM (inactive) | GI50 (UACC-62): > 100 µM (inactive) | GI50 (OVCAR-8): > 100 µM (inactive) | GI50 (SK-MEL-2): > 100 µM (inactive) | GI50 (Malme-3M): > 100 µM (inactive) | GI50 (DMS-114): > 100 µM (inactive) | GI50 (SW-620): > 100 µM (inactive) | GI50 (HL-60): > 100 µM (inactive) | GI50 (EKVX): > 100 µM (inactive) | GI50 (SF-539): > 100 µM (inactive) | GI50 (OVCAR-3): > 100 µM (inactive) | GI50 (RPMI-8226): > 100 µM (inactive) | GI50 (TK-10): > 100 µM (inactive) | GI50 (SF-295): > 100 µM (inactive) | GI50 (NCI-H460): > 100 µM (inactive) | GI50 (SK-MEL-5): > 100 µM (inactive) | GI50 (SNB-19): > 100 µM (inactive) | GI50 (U-251): > 100 µM (inactive) | GI50 (NCI-H23): > 100 µM (inactive) | GI50 (SK-MEL-28): > 100 µM (inactive) | GI50 (HOP-92): 77.6 µM (inactive) | GI50 (HOP-62): > 100 µM (inactive) | GI50 (KM-20L2): > 100 µM (inactive) | GI50 (DLD-1): > 100 µM (inactive) | GI50 (MOLT-4): > 100 µM (inactive) | GI50 (RXF 393): > 100 µM (inactive) | GI50 (LXFL 529): > 100 µM (inactive) | GI50 (SF-268): > 100 µM (inactive) | GI50 (NCI-H226): > 100 µM (inactive) | GI50 (SR): > 100 µM (inactive) | GI50 (786-0): > 100 µM (inactive) | GI50 (HOP-18): > 100 µM (inactive) | GI50 (SN12C): > 100 µM (inactive) | GI50 (K562): > 100 µM (inactive) | GI50 (A549): > 100 µM (inactive) | GI50 (CAKI-1): > 100 µM (inactive) | GI50 (SK-OV-3): > 100 µM (inactive)

COc1cc([C@@H]2c3cc4c(cc3[C@@H](NC(=O)c3ccc(N)cc3)C3COC(=O)[C@@H]32)OCO4)cc(OC)c1O (stereo not given in full)
GI50 (LOX IMVI): 1.45 µM (inactive) | GI50 (KM12): 2.65 µM (inactive) | GI50 (IGROV-1): 1.42 µM (inactive) | GI50 (M14): 2.72 µM (inactive) | GI50 (NCI-H522): 1.75 µM (inactive) | GI50 (UACC-257): 9.16 µM (inactive) | GI50 (CCRF-CEM): 0.292 µM (active) | GI50 (DMS-273): 0.37 µM (active) | GI50 (A498): 1.64 µM (inactive) | GI50 (COLO 205): 10.8 µM (inactive) | GI50 (HCT-15): 12.6 µM | GI50 (HCT-116): 2.47 µM (inactive) | GI50 (OVCAR-5): 4.49 µM (inactive) | GI50 (ACHN): 0.597 µM (active) | GI50 (HT-29): 2.41 µM (inactive) | GI50 (HCC 2998): 3.61 µM (inactive) | GI50 (UACC-62): 1.19 µM (inactive) | GI50 (OVCAR-8): 2.53 µM (inactive) | GI50 (SK-MEL-2): 7.74 µM (inactive) | GI50 (Malme-3M): 2.51 µM (inactive) | GI50 (DMS-114): 2 µM (inactive) | GI50 (SW-620): 1.03 µM (active) | GI50 (HL-60): 0.207 µM (active) | GI50 (EKVX): 3.62 µM (inactive) | GI50 (SF-539): 1.02 µM (active) | GI50 (OVCAR-3): 7.46 µM (inactive) | GI50 (RPMI-8226): 1.61 µM (inactive) | GI50 (TK-10): 9.68 µM (inactive) | GI50 (SNB-75): 1.29 µM (inactive) | GI50 (SF-295): 1.98 µM (inactive) | GI50 (NCI-H460): < 0.01 µM (active) | GI50 (SK-MEL-5): 2.81 µM (inactive) | GI50 (SNB-19): 1.34 µM (inactive) | GI50 (U-251): 0.362 µM (active) | GI50 (NCI-H23): 1.3 µM (inactive) | GI50 (SK-MEL-28): 5.15 µM (inactive) | GI50 (HOP-92): 4.85 µM (inactive) | GI50 (HOP-62): 0.535 µM (active) | GI50 (KM-20L2): 1.73 µM (inactive) | GI50 (DLD-1): 3.47 µM (inactive) | GI50 (MOLT-4): 0.0375 µM (active) | GI50 (RXF 393): 15.7 µM (inactive) | GI50 (LXFL 529): 13.9 µM (inactive) | GI50 (SF-268): 2.41 µM (inactive) | GI50 (NCI-H226): 0.881 µM (active) | GI50 (786-0): 1.36 µM (inactive) | GI50 (HOP-18): > 100 µM (inactive) | GI50 (OVCAR-4): 93.8 µM (inactive) | GI50 (SN12C): 0.853 µM (active) | GI50 (K562): 3.52 µM (inactive) | GI50 (A549): 0.119 µM (active) | GI50 (M19-MEL): 12.5 µM (inactive) | GI50 (CAKI-1): 5.4 µM (inactive) | GI50 (SK-OV-3): 2.14 µM (inactive) | GI50 (UO-31): 11.9 µM (inactive)
